Assay results from patent US20130116282A1, “BUCKWHEAT EXTRACT ENRICHED IN D-FAGOMINE” (BIOGLANE, S.L.N.E., priority 2010, published 2013).

Tests used:
[1] = system: Escherichia coli; test: Adhesion of Escherichia coli to mucus (pig intestinal mucosa); assay type: cell-based; conditions: 10 mg/L D-fagomine
Description: Adhesion to Mucus. Protocol
The strains of Escherichia coli used were obtained from the Bacterial Strain Collection of the Faculty of Veterinary Science at the Universitat Autònoma de Barcelona. Overnight, cultures of the bacterial strain were inoculated into flasks containing Luria medium (Liofilchem, Roseto degli Abruzzi, Italy) (3 mL) to facilitate the production of fimbriae. The strains were incubated at 37° C. for 24 h. Then, colonies were grown on Luria medium Agar plates and after 24 h of incubation, several dilutions were prepared in PBS (phosphate buffered saline, Sigma Aldrich, St Louis, Mo., USA) for each strain, down to a concentration of 1×10^7 CFU mL^−1.
The mucosa was obtained from intestinal segments of pigs, just after they were killed at a local slaughterhouse, and kept frozen until use. The mucosa preparation (1 mL) was defrosted, centrifuged and mixed with PBS (99 mL). Prior to each test, the concentration of mucine in the suspension was calculated by the Bradford method. Multiwell plates (Nunc®, Roskilde, Denmark) were treated with the mucosa suspension (2.5 mL) overnight at 4° C. […] Finally, the colony forming units from both the supernatant and mucosa were counted under an optical microscope after cultivating both fractions overnight.

[2] = system: Sprague-Dawley rats; test: Post-prandial blood glucose test after sucrose administration; assay type: in vivo, rat; conditions: sucrose 2 g/kg, 1.0 mg/kg D-fagomine
Description: The effect on postprandial blood glucose of both D-fagomine enriched extract from buckwheat and D-fagomine obtained chemoenzimatically following the procedure described in WO2008025826A1 was evaluated. Adult male Sprague-Dawley rats of 200-220 g body weight (Janvier, Le Genest-St-Isle, France) were housed in cages (n=2/cage) under controlled conditions of stable humidity (40-77%), and temperature (23° C.) with a 12-hour light/dark cycle. The rats were fed a standard diet (Panlab A04, Panlab, Barcelona, Spain) and given water ad libitum. To minimize circadian rhythm effects, rat manipulations were carried out in the morning. Handling and sacrificing of the animals were in full accordance with the European Union guidelines for the care and management of laboratory animals and the pertinent permission was obtained from the CSIC Subcommittee of Bioethical Issues. The authors further attest that all efforts were made to minimize the number of animals used and their suffering. The glucose test was performed after a 12 h food deprivation period. A solution of sucrose (2 g/kg body weight) together with the appropriate amount of the compound being tested was administered to the rats. […] Blood glucose concentration was measured by the enzyme electrode method using Elite blood glucose test strips and a blood glucose meter Ascensia ELITE XL both from Bayer Consumer Care AG (Basel, Switzerland). […]

[3] = system: lactase; conditions: Kato et al. 1997; cited from earlier work
[4] = system: Streptozotocin-diabetic mice; conditions: Nojima et al. 1998; cited from earlier work
[5] = system: alpha-glycosidase; conditions: Kato et al. 1997; cited from earlier work

SMILES: OC[C@H]1NCC[C@@H](O)[C@@H]1O [D-fagomine WO2008025826A1, (2R,3R,4R)-2-(hydroxymethyl)piperidine-3,4-diol]
- Agglutination of the microorganisms [1]: agglutinated
- Bacterial adhesion to the mucus [1]: not detected
- Increase in plasma glucose after sucrose administration [2]: lowered
- lactase inhibition [3]: weak inhibitor
- antihyperglycemic effect [4]: antihyperglycemic effect
- alpha-glycosidase inhibition [5]: weak inhibitor
